In brackets after ≈: the same amount, converted by molar mass. Several values for one entry are separate records, joined by “and”; a condition that tells them apart may be missing. Identical values can stand only once.
Key:
[1] = test system: traumatic brain injury; conditions: after traumatic brain injury; cited from earlier work
[2] = test system: formalin-injected paw model of pain; conditions: coadministration 450 μg/paw; P < 0.001; cited from earlier work
[3] = biological target: T1, human dopamine D1 receptor (hD1R) (Homo sapiens, UniProt P21728); experiment: GPCR functional assay, antagonist effect; type: cell-based; conditions: CHO
T1 sequence (P21728 whole entry): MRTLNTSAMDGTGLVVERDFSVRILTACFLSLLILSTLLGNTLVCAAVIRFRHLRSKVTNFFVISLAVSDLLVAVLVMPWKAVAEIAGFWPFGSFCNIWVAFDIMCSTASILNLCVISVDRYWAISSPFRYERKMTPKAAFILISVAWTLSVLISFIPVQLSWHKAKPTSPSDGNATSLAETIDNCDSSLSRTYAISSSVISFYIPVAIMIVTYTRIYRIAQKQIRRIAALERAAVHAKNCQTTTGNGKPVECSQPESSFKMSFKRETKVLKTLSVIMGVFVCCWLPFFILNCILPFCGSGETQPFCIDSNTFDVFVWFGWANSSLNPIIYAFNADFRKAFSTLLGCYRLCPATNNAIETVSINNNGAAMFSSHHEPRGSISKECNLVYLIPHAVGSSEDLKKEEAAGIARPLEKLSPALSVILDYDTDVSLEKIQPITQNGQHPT

[4] = biological target: T2, human dopamine D4 receptor (hD4R) (Homo sapiens, UniProt P21917); experiment: GPCR functional assay, antagonist effect; type: cell-based; conditions: for inhibition at 50 µM: CHO
T2 sequence (P21917 1-419): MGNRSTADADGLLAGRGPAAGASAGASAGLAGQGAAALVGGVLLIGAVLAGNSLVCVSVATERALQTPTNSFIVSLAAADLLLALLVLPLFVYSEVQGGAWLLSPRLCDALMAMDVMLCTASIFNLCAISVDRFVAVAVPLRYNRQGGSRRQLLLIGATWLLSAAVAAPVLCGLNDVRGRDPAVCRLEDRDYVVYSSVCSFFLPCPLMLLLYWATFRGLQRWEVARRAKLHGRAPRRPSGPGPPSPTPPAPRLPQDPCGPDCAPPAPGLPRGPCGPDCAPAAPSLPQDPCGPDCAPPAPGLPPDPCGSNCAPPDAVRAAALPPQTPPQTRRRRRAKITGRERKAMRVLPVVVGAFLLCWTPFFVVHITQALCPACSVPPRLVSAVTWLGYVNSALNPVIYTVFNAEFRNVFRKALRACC

[5] = biological target: T3, human 5-HT1A receptor (h5-HT1AR) (Homo sapiens, UniProt P08908); experiment: GPCR functional assay, antagonist effect; type: cell-based; conditions: for % inhibition: 5-HT1A (h), % inhibition of control response to 30 nM serotonin at 50 μM of anthraquinones
T3 sequence (P08908 1-422): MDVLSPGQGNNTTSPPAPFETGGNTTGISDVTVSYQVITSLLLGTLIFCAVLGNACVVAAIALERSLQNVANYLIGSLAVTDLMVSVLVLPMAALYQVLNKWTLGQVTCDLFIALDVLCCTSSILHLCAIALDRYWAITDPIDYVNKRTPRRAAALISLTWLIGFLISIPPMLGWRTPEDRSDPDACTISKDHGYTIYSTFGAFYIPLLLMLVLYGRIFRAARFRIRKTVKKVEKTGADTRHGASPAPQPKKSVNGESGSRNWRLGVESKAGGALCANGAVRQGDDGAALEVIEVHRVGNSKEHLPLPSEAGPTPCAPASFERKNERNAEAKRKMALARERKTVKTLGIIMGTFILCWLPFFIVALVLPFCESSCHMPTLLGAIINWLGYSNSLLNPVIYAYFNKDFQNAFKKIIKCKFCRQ

[6] = biological target: T1, human dopamine D1 receptor (hD1R); experiment: GPCR functional assay, agonist effect; type: cell-based; conditions: D1 (h); % of control agonist (dopamine) response at 50 μM of anthraquinones
[7] = biological target: T3, human 5-HT1A receptor (h5-HT1AR); experiment: GPCR functional assay, agonist effect; type: cell-based; conditions: 5-HT1A (h); % of control response to serotonin (2.5 μM) at 50 μM of anthraquinones
[8] = biological target: acetylcholinesterase; conditions: cited from earlier work
[9] = biological target: T4, human dopamine D3 receptor (hD3R) (Homo sapiens, UniProt P35462); experiment: GPCR functional assay, antagonist effect; type: cell-based; conditions: for % inhibition: D3 (h), % inhibition of control response to 10 nM dopamine at 50 μM of anthraquinones
T4 sequence (P35462 whole entry): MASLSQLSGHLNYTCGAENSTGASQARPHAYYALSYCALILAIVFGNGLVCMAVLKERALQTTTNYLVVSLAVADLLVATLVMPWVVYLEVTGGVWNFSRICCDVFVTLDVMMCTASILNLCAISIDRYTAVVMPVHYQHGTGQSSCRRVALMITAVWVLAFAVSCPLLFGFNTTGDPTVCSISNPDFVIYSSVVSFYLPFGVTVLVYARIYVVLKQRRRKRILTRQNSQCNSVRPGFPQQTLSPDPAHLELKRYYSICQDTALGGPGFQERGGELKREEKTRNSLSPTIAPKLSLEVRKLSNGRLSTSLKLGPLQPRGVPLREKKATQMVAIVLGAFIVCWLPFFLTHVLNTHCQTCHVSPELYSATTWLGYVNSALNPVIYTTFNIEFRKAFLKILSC

[10] = biological target: T2, human dopamine D4 receptor (hD4R); experiment: GPCR functional assay, agonist effect; type: cell-based; conditions: D4 (h); % of control agonist (dopamine) response at 50 μM of anthraquinones
[11] = biological target: T5, human vasopressin V1A receptor (hV1AR) (Homo sapiens, UniProt P37288); experiment: cell-based
T5 sequence (P37288 whole entry): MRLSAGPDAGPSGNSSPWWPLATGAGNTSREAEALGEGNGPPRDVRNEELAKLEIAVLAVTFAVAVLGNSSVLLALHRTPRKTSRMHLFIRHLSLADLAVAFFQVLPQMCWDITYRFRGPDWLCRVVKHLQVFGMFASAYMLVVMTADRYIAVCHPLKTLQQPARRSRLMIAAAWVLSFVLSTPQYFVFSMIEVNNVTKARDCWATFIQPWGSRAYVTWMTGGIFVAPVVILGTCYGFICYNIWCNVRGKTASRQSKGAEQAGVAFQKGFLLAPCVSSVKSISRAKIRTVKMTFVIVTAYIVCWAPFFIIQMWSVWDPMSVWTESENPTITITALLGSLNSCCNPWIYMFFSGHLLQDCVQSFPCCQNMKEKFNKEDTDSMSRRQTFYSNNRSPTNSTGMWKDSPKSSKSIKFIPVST

[12] = biological target: T4, human dopamine D3 receptor (hD3R); experiment: GPCR functional assay, agonist effect; type: cell-based; conditions: for % stimulation: D3 (h), % of control response to 300 nM dopamine at 50 μM of anthraquinones
[13] = test system: U87MG cells; conditions: 20 and 40 μM; cited from earlier work
[14] = biological target: T5, human vasopressin V1A receptor (hV1AR); experiment: GPCR functional assay, agonist effect; type: cell-based; conditions: for % stimulation: V1A (h), % of control response to 1 μM AVP at 50 μM of anthraquinones; for agonist response at hV1AR (in words): up to 50 μM
[15] = test system: human glioblastoma U87MG-implanted nude CG1 mice; conditions: i.p. 50 mg/(kg day) for 15 days; decreasing Ki67 positive cells; cited from earlier work
[16] = test system: cycloheximide-induced amnesia in rats; conditions: cited from earlier work
[17] = test system: human epidermoid carcinoma A431 cell; conditions: 100 μM, 4 nM (−)-epinephrine, 2 μM nicotinic acid, 8 μM histamine; cited from earlier work
[18] = test system: cerebral ischemia/reperfusion (I/R) model rats; conditions: intraperitoneal injection, 25 g/(kg day); cited from earlier work
[19] = 20 and 40 mg/kg, rapid phase II metabolism to glucuronide; cited from earlier work

Structure (SMILES)	inhibition at 50 µM [3]	inhibition at 50 µM [4]	antagonist effect on h5-HT1AR (in words) [5]	% inhibition [5]	% stimulation [6]	% stimulation [7]	% inhibition [9]	% stimulation [10]	effect on hV1AR (in words) [11]	% stimulation [12]	% stimulation [14]	agonist response at hV1AR (in words) [14]	also measured
COc1ccc(S(=O)(=O)N2c3ccc(Cl)cc3[C@](O)(c3ccccc3Cl)[C@@H]2C(=O)N2CCC[C@H]2C(N)=O)cc1OC [SR49059, (2S)1-{(2R,3S)-5-chloro-3-(2-chloro-phenyl)-1-(3,4-dimethoxybenzene-sulfonyl)-3-hydroxy-2,3-dihydro-1H-indole-2-carbonyl}pyrrolidine-2-carboxamide]													brain edema [1]: prevented brain edema
COc1ccccc1N1CCN(CC(C(=O)NC(C)(C)C)c2ccccc2)CC1 (stereo not drawn) [WAY 100 135]													phase 2 (long lasting) intense flinching behavior [2]: inhibited
O=C1c2cccc(O)c2C(=O)c2c(O)cc(CO)cc21 [aloe-emodin]	-47.9%	25.7%	remained ineffective	1.55 ± 3.61%	0.15 ± 4.45%	3.45 ± 0.21%	20.60 ± 6.79%	-53.15 ± 7.00%	did not have any observable effect	–57.95 ± 32.88%	7.45 ± 1.20%	did not show any agonist response	hD4R antagonist effect (in words) [4]: mild antagonist effect; IC50 (acetylcholinesterase activity) [8]: 18.37 µg/mL (≈ 68 µM); hD3R antagonist effect (in words) [9]: mild hD3R antagonist effect; cell cycle effect [13]: induced cell cycle arrest; effect in mouse brain tumour model [15]: showed antiproliferative effect
Cc1cc(O)c2c(c1)C(=O)c1cc(O)cc(O)c1C2=O [emodin]	-10.2%	-0.35%	remained ineffective	18.4 ± 3.89%	–3.55 ± 0.64%	–3.56 ± 0.21%	−10.8 ± 6.59%	2.35 ± 2.76%		75.6% and 75.60 ± 12.87%	–4.80 ± 0.69%	did not show any agonist response	cycloheximide-induced amnesia [16]: improved cycloheximide-induced amnesia; effect on agonist-induced dynamic mass redistribution signals [17]: inhibited; neurological deficit scores [18]: improved neurological deficit scores; IC50 [11]: 10.2 ± 1.97 µM; inhibition at 12.5 µM ([11]; CHO, read-out: inhibition of 10 nM AVP-induced intracellular Ca2+ concentration): > 50%; % inhibition ([11]; V1A (h), % inhibition of control response to 10 nM AVP at 50 μM of anthraquinones): 69.35 ± 1.34%; EC50 [12]: 21.9 ± 2.66 µM; parent form in vivo after oral administration [19]: almost undetectable
COc1cc(O)cc2c1C(=O)c1c(O)cc(C)cc1C2=O [questin]	10.9%	4.5%	remained ineffective	0.70 ± 4.10%	–2.10 ± 0.85%	2.45 ± 0.49%	1.25 ± 7.42%	–38.15 ± 15.91%	did not have any observable effect	34.85% and 34.85 ± 0.78%	–3.40 ± 0.71%	did not show any agonist response	hD3R agonist effect (in words) [12]: moderate hD3R agonist effect

From article PMC7144155 (ACS Omega, 2020)
